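How tested: cells in 96-well plates exposed to compound for 48 hours at five concentrations. Definition used: TGI = concentration required for complete inhibition of growth.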
Tests used:
Assay in all cases: DTP human tumour cell line panel, 48 h
NCI-H522 lung = tested on: NCI-H522 lung
HCC-2998 colon = tested on: HCC-2998 colon
HCT-15 colon = tested on: HCT-15 colon
SF-539 CNS = tested on: SF-539 CNS
RXF 393 renal = tested on: RXF 393 renal
TK-10 renal = tested on: TK-10 renal
HOP-62 NSCLC = tested on: HOP-62 NSCLC
SF-268 CNS = tested on: SF-268 CNS
DU-145 prostate = tested on: DU-145 prostate
CAKI-1 renal = tested on: CAKI-1 renal
UACC-257 melanoma = tested on: UACC-257 melanoma
NCI-H23 lung = tested on: NCI-H23 lung
MALME-3M melanoma = tested on: MALME-3M melanoma
SF-295 CNS = tested on: SF-295 CNS
A549 NSCLC = tested on: A549 NSCLC
BT-549 breast = tested on: BT-549 breast
OVCAR-8 ovarian = tested on: OVCAR-8 ovarian
COLO 205 colon = tested on: COLO 205 colon
K-562 leukemia = tested on: K-562 leukemia
SNB-75 CNS = tested on: SNB-75 CNS
UO-31 renal = tested on: UO-31 renal
SK-MEL-28 melanoma = tested on: SK-MEL-28 melanoma
OVCAR-3 ovarian = tested on: OVCAR-3 ovarian
HL-60(TB) leukemia = tested on: HL-60(TB) leukemia
PC-3 prostate = tested on: PC-3 prostate
OVCAR-5 ovarian = tested on: OVCAR-5 ovarian
SK-MEL-2 melanoma = tested on: SK-MEL-2 melanoma
SN12C renal = tested on: SN12C renal
MDA-MB-231 breast = tested on: MDA-MB-231 breast
SK-MEL-5 melanoma = tested on: SK-MEL-5 melanoma
MDA-N = tested on: MDA-N
A498 renal = tested on: A498 renal
HT29 colon = tested on: HT29 colon
NCI/ADR-RES ovarian = tested on: NCI/ADR-RES ovarian
SR leukemia = tested on: SR leukemia
U251 CNS = tested on: U251 CNS
EKVX NSCLC = tested on: EKVX NSCLC
MCF7 breast = tested on: MCF7 breast
M14 melanoma = tested on: M14 melanoma
UACC-62 melanoma = tested on: UACC-62 melanoma
ACHN renal = tested on: ACHN renal
KM12 colon = tested on: KM12 colon
786-0 renal = tested on: 786-0 renal
HCT-116 colon = tested on: HCT-116 colon
CCRF-CEM leukemia = tested on: CCRF-CEM leukemia
IGROV1 ovarian = tested on: IGROV1 ovarian
RPMI-8226 leukemia = tested on: RPMI-8226 leukemia
SNB-19 CNS = tested on: SNB-19 CNS
HOP-92 NSCLC = tested on: HOP-92 NSCLC
MDA-MB-435 = tested on: MDA-MB-435
T-47D breast = tested on: T-47D breast
SW-620 colon = tested on: SW-620 colon
MOLT-4 leukemia = tested on: MOLT-4 leukemia
HS 578T breast = tested on: HS 578T breast
LOX IMVI melanoma = tested on: LOX IMVI melanoma
NCI-H226 lung = tested on: NCI-H226 lung
OVCAR-4 ovarian = tested on: OVCAR-4 ovarian
SK-OV-3 ovarian = tested on: SK-OV-3 ovarian
NCI-H460 lung = tested on: NCI-H460 lung

Compound: S=C(S)N1CCN(c2cccc(Cl)c2)CC1
- TGI (NCI-H522 lung): > 100 µM
- TGI (HCC-2998 colon): > 100 µM
- TGI (HCT-15 colon): > 100 µM
- TGI (SF-539 CNS): > 100 µM
- TGI (RXF 393 renal): > 100 µM
- TGI (TK-10 renal): > 100 µM
- TGI (HOP-62 NSCLC): > 100 µM
- TGI (SF-268 CNS): > 100 µM
- TGI (DU-145 prostate): > 100 µM
- TGI (CAKI-1 renal): > 100 µM
- TGI (UACC-257 melanoma): > 100 µM
- TGI (NCI-H23 lung): > 100 µM
- TGI (MALME-3M melanoma): > 100 µM
- TGI (SF-295 CNS): > 100 µM
- TGI (A549 NSCLC): > 100 µM
- TGI (BT-549 breast): > 100 µM
- TGI (OVCAR-8 ovarian): > 100 µM
- TGI (COLO 205 colon): > 100 µM
- TGI (K-562 leukemia): > 100 µM
- TGI (SNB-75 CNS): > 100 µM
- TGI (UO-31 renal): > 100 µM
- TGI (SK-MEL-28 melanoma): > 100 µM
- TGI (OVCAR-3 ovarian): > 100 µM
- TGI (HL-60(TB) leukemia): > 100 µM
- TGI (PC-3 prostate): > 100 µM
- TGI (OVCAR-5 ovarian): > 100 µM
- TGI (SK-MEL-2 melanoma): > 100 µM
- TGI (SN12C renal): > 100 µM
- TGI (MDA-MB-231 breast): > 100 µM
- TGI (SK-MEL-5 melanoma): > 100 µM
- TGI (MDA-N): > 100 µM
- TGI (A498 renal): > 100 µM
- TGI (HT29 colon): > 100 µM
- TGI (NCI/ADR-RES ovarian): > 100 µM
- TGI (SR leukemia): > 100 µM
- TGI (U251 CNS): > 100 µM
- TGI (EKVX NSCLC): > 100 µM
- TGI (MCF7 breast): > 100 µM
- TGI (M14 melanoma): > 100 µM
- TGI (UACC-62 melanoma): > 100 µM
- TGI (ACHN renal): > 100 µM
- TGI (KM12 colon): > 100 µM
- TGI (786-0 renal): > 100 µM
- TGI (HCT-116 colon): > 100 µM
- TGI (CCRF-CEM leukemia): > 100 µM
- TGI (IGROV1 ovarian): > 100 µM
- TGI (RPMI-8226 leukemia): > 100 µM
- TGI (SNB-19 CNS): > 100 µM
- TGI (HOP-92 NSCLC): > 100 µM
- TGI (MDA-MB-435): > 100 µM
- TGI (T-47D breast): > 100 µM
- TGI (SW-620 colon): > 100 µM
- TGI (MOLT-4 leukemia): > 100 µM
- TGI (HS 578T breast): > 100 µM
- TGI (LOX IMVI melanoma): > 100 µM

Compound: O=C(Oc1ccc(S(=O)(=O)F)cc1F)c1ccccc1Cl
- TGI (NCI-H522 lung): 42 µM
- TGI (HCC-2998 colon): > 100 µM
- TGI (HCT-15 colon): > 100 µM
- TGI (NCI-H226 lung): > 100 µM
- TGI (SF-539 CNS): 62.1 µM
- TGI (RXF 393 renal): 64.5 µM
- TGI (TK-10 renal): > 100 µM
- TGI (HOP-62 NSCLC): > 100 µM
- TGI (SF-268 CNS): > 100 µM
- TGI (DU-145 prostate): > 100 µM
- TGI (CAKI-1 renal): > 100 µM
- TGI (UACC-257 melanoma): 78.8 µM
- TGI (NCI-H23 lung): 53.9 µM
- TGI (MALME-3M melanoma): 86.4 µM
- TGI (SF-295 CNS): 89.4 µM
- TGI (A549 NSCLC): > 100 µM
- TGI (BT-549 breast): > 100 µM
- TGI (OVCAR-8 ovarian): > 100 µM
- TGI (COLO 205 colon): 44.6 µM
- TGI (OVCAR-4 ovarian): 94.5 µM
- TGI (K-562 leukemia): > 100 µM
- TGI (SNB-75 CNS): 74.2 µM
- TGI (UO-31 renal): 40 µM
- TGI (SK-MEL-28 melanoma): > 100 µM
- TGI (OVCAR-3 ovarian): 75.6 µM
- TGI (HL-60(TB) leukemia): > 100 µM
- TGI (PC-3 prostate): > 100 µM
- TGI (OVCAR-5 ovarian): > 100 µM
- TGI (SK-MEL-2 melanoma): > 100 µM
- TGI (SN12C renal): > 100 µM
- TGI (MDA-MB-231 breast): 58 µM
- TGI (SK-OV-3 ovarian): > 100 µM
- TGI (SK-MEL-5 melanoma): 31.1 µM
- TGI (MDA-N): > 100 µM
- TGI (A498 renal): > 100 µM
- TGI (HT29 colon): 72.9 µM
- TGI (NCI/ADR-RES ovarian): > 100 µM
- TGI (SR leukemia): 55.8 µM
- TGI (U251 CNS): > 100 µM
- TGI (EKVX NSCLC): 72.3 µM
- TGI (MCF7 breast): 83.9 µM
- TGI (M14 melanoma): > 100 µM
- TGI (UACC-62 melanoma): > 100 µM
- TGI (ACHN renal): > 100 µM
- TGI (KM12 colon): 60.9 µM
- TGI (786-0 renal): > 100 µM
- TGI (HCT-116 colon): > 100 µM
- TGI (IGROV1 ovarian): > 100 µM
- TGI (NCI-H460 lung): 70.5 µM
- TGI (RPMI-8226 leukemia): 45.6 µM
- TGI (SNB-19 CNS): 87.2 µM
- TGI (HOP-92 NSCLC): 65.1 µM
- TGI (MDA-MB-435): 74.6 µM
- TGI (T-47D breast): 84.3 µM
- TGI (SW-620 colon): > 100 µM
- TGI (HS 578T breast): 65.2 µM
- TGI (LOX IMVI melanoma): > 100 µM

Compound: CN(C)Cc1cc(N=Nc2ccccc2)ccc1O
- TGI (NCI-H522 lung): 73.9 µM
- TGI (HCC-2998 colon): > 100 µM
- TGI (HCT-15 colon): > 100 µM
- TGI (NCI-H226 lung): > 100 µM
- TGI (SF-539 CNS): > 100 µM
- TGI (RXF 393 renal): 69.2 µM
- TGI (TK-10 renal): > 100 µM
- TGI (HOP-62 NSCLC): > 100 µM
- TGI (SF-268 CNS): > 100 µM
- TGI (DU-145 prostate): > 100 µM
- TGI (CAKI-1 renal): > 100 µM
- TGI (UACC-257 melanoma): 76.9 µM
- TGI (NCI-H23 lung): > 100 µM
- TGI (MALME-3M melanoma): > 100 µM
- TGI (SF-295 CNS): > 100 µM
- TGI (A549 NSCLC): > 100 µM
- TGI (BT-549 breast): > 100 µM
- TGI (OVCAR-8 ovarian): > 100 µM
- TGI (COLO 205 colon): > 100 µM
- TGI (K-562 leukemia): 58.1 µM
- TGI (SNB-75 CNS): > 100 µM
- TGI (UO-31 renal): 89.6 µM
- TGI (SK-MEL-28 melanoma): > 100 µM
- TGI (OVCAR-3 ovarian): > 100 µM
- TGI (HL-60(TB) leukemia): > 100 µM
- TGI (PC-3 prostate): > 100 µM
- TGI (OVCAR-5 ovarian): > 100 µM
- TGI (SK-MEL-2 melanoma): > 100 µM
- TGI (SN12C renal): > 100 µM
- TGI (MDA-MB-231 breast): > 100 µM
- TGI (SK-MEL-5 melanoma): 29.4 µM
- TGI (MDA-N): > 100 µM
- TGI (A498 renal): 79.1 µM
- TGI (HT29 colon): > 100 µM
- TGI (NCI/ADR-RES ovarian): > 100 µM
- TGI (SR leukemia): > 100 µM
- TGI (U251 CNS): > 100 µM
- TGI (EKVX NSCLC): > 100 µM
- TGI (MCF7 breast): > 100 µM
- TGI (M14 melanoma): > 100 µM
- TGI (UACC-62 melanoma): 69.2 µM
- TGI (ACHN renal): > 100 µM
- TGI (KM12 colon): > 100 µM
- TGI (786-0 renal): > 100 µM
- TGI (HCT-116 colon): > 100 µM
- TGI (CCRF-CEM leukemia): > 100 µM
- TGI (IGROV1 ovarian): > 100 µM
- TGI (NCI-H460 lung): > 100 µM
- TGI (RPMI-8226 leukemia): > 100 µM
- TGI (SNB-19 CNS): > 100 µM
- TGI (HOP-92 NSCLC): > 100 µM
- TGI (MDA-MB-435): > 100 µM
- TGI (T-47D breast): > 100 µM
- TGI (SW-620 colon): > 100 µM
- TGI (MOLT-4 leukemia): > 100 µM
- TGI (HS 578T breast): > 100 µM
- TGI (LOX IMVI melanoma): > 100 µM

— PubChem BioAssay (NCI)
